Results from US7297700B2, “Bicycloheteroaryl compounds as P2X7 modulators and uses thereof” (Renovis, Inc., priority 2005, dated 2007).

What follows are compounds tested on IL-1β release from THP-1 cells (assay: IL-1β Release Assay (Alternate Method), THP-1 cells). Conditions: Homo sapiens, THP-1, read-out: IL-1β % inhibition.
Assay type: cell-based, human
Description: THP-1 cells (ATCC Cat #285-IF-100) are plated in 96 well plates at a concentration of 200,000 cells per well and allowed to differentiate in RPMI-1640 media (ATCC Cat #30-2001) containing 10% FBS, 100 IU/mL penicillin, 100 ug/mL streptomycin, 100 ng/mL LPS and 100 ng/mL IFN-γ for 16 hours. Following differentiation, the cells are treated for an additional 2 hours in RPMI-1640 media containing 100 IU/mL penicillin, 100 ug/mL streptomycin and fresh LPS at 100 ng/mL. The cells are then pretreated for 30 minutes with the compound of interest at the appropriate concentration in RPMI media containing 100 IU/mL penicillin, 100 ug/mL streptomycin. Following the pretreatment 2′, 3′-O-(4-benzoylbenzoyl)-adenosine 5′-triphosphate (Sigma Aldrich Cat#B6396) is added to a final concentration of 250 uM and the cells incubated for an additional 45 minutes. 30 uL of cell supernatant is then collected and IL-1β levels determined via ELISA (R&D systems Cat. #HSLB50) according to manufacturer's recommendations using the Tecan Safire plate reader. Background adjusted IL-1β levels of drug treated and non-treated cells are used to calculate the percent inhibition.
O=C(CC12CC3CC(CC(C3)C1)C2)Nc1ncnc2c1CCN(S(=O)(=O)c1ccccc1)C2 [Compound 143] showed an inhibition at 0.3 µM of 0 to 25%.

Same assay, conditions: Homo sapiens; at 0.3 μM; THP-1 cells; read-out: IL-1β % inhibition
With O=C(NCC12CC3CC(CC(C3)C1)C2)c1ncnc2c1CCN(Cc1ccc(F)cc1F)C2 [Compound 137] the inhibition at 0.3 µM was 50 to 75%.

Same assay, conditions: at 0.3 μM; THP-1 cells
For O=C(CC12CC3CC(CC(C3)C1)C2)Nc1ncnc2c1CCN(Cc1ccc(F)cc1C(F)(F)F)C2 [Compound 107], the IL-1β % inhibition was “+ (compound exhibited 0-25% inhibition at 0.3 μM)”. For O=C(CC12CC3CC(CC(C3)C1)C2)Nc1ncnc2c1CCN(Cc1cc(F)cc(C(F)(F)F)c1)C2 [Compound 108], the IL-1β % inhibition was “+ (compound exhibited 0-25% inhibition at 0.3 μM)”. O=C(CC12CC3CC(CC(C3)C1)C2)Nc1ncnc2c1CCN(Cc1cc(C(F)(F)F)ccc1F)C2 [Compound 109] was tested, and the IL-1β % inhibition was “++ (compound exhibited 25-50% inhibition at 0.3 μM)”. For O=C(CC12CC3CC(CC(C3)C1)C2)Nc1ncnc2c1CCN(Cc1ccc(C(F)(F)F)cc1F)C2 [Compound 110], the IL-1β % inhibition was “+ (compound exhibited 0-25% inhibition at 0.3 μM)”. In the case of O=C(CC12CC3CC(CC(C3)C1)C2)Nc1ncnc2c1CCN(Cc1c(F)cccc1C(F)(F)F)C2 [Compound 111], the IL-1β % inhibition is reported as “++ (compound exhibited 25-50% inhibition at 0.3 μM)”. For Cc1ccc(CN2CCc3c(ncnc3NC(=O)CC34CC5CC(CC(C5)C3)C4)C2)c2ccccc12 [Compound 112], the IL-1β % inhibition was “+ (compound exhibited 0-25% inhibition at 0.3 μM)”. CC(C)Oc1ccc(CN2CCc3c(ncnc3NC(=O)CC34CC5CC(CC(C5)C3)C4)C2)cc1 [Compound 113] was tested, and the IL-1β % inhibition was “+ (compound exhibited 0-25% inhibition at 0.3 μM)”. In the case of O=C(CC12CC3CC(CC(C3)C1)C2)Nc1ncnc2c1CCN(Cc1cccc(OC(F)(F)F)c1)C2 [Compound 114], the IL-1β % inhibition is reported as “+ (compound exhibited 0-25% inhibition at 0.3 μM)”. With O=C(O)C=Cc1ccc(CN2CCc3c(ncnc3NC(=O)CC34CC5CC(CC(C5)C3)C4)C2)cc1 [Compound 115] the IL-1β % inhibition was “+ (compound exhibited 0-25% inhibition at 0.3 μM)”. For CSc1ccc(CN2CCc3c(ncnc3NC(=O)CC34CC5CC(CC(C5)C3)C4)C2)cc1 [Compound 116], the IL-1β % inhibition was “+ (compound exhibited 0-25% inhibition at 0.3 μM)”. COc1cc(CN2CCc3c(ncnc3NC(=O)CC34CC5CC(CC(C5)C3)C4)C2)ccc1O [Compound 117] was tested, and the IL-1β % inhibition was “+ (compound exhibited 0-25% inhibition at 0.3 μM)”. With Cc1cccc(CN2CCc3c(ncnc3NC(=O)CC34CC5CC(CC(C5)C3)C4)C2)n1 [Compound 118] the IL-1β % inhibition was “+ (compound exhibited 0-25% inhibition at 0.3 μM)”. COc1ccc(CN2CCc3c(ncnc3NC(=O)CC34CC5CC(CC(C5)C3)C4)C2)cc1F [Compound 119] was tested, and the IL-1β % inhibition was “++ (compound exhibited 25-50% inhibition at 0.3 μM)”. For O=C(CC12CC3CC(CC(C3)C1)C2)Nc1ncnc2c1CCN(Cc1ccccc1C(F)(F)F)C2 [Compound 120], the IL-1β % inhibition was “+ (compound exhibited 0-25% inhibition at 0.3 μM)”. For O=C(CC12CC3CC(CC(C3)C1)C2)Nc1ncnc2c1CCN(CC1CCCC1)C2 [Compound 121], the IL-1β % inhibition was “+ (compound exhibited 0-25% inhibition at 0.3 μM)”. For O=C(CC12CC3CC(CC(C3)C1)C2)Nc1ncnc2c1CCN(CC1CCCCC1)C2 [Compound 122], the IL-1β % inhibition was “+ (compound exhibited 0-25% inhibition at 0.3 μM)”. For O=C(CC12CC3CC(CC(C3)C1)C2)Nc1ncnc2c1CCN(Cc1ccc(F)cc1)C2 [Compound 123], the IL-1β % inhibition was “+ (compound exhibited 0-25% inhibition at 0.3 μM)”. In the case of Cc1ccc(CN2CCc3c(ncnc3NC(=O)CC3CCCCCC3)C2)s1 [Compound 125], the IL-1β % inhibition is reported as “+ (compound exhibited 0-25% inhibition at 0.3 μM)”. O=C(CC1CCCCCC1)Nc1ncnc2c1CCN(Cc1c[nH]cn1)C2 [Compound 126] was tested, and the IL-1β % inhibition was “+ (compound exhibited 0-25% inhibition at 0.3 μM)”. O=C(CC1CCCCCC1)Nc1ncnc2c1CCN(CC1CCCCC1)C2 [Compound 127] was tested, and the IL-1β % inhibition was “+ (compound exhibited 0-25% inhibition at 0.3 μM)”. In the case of O=C(CC1CCCCCC1)Nc1ncnc2c1CCN(CC1CCCC1)C2 [Compound 128], the IL-1β % inhibition is reported as “+ (compound exhibited 0-25% inhibition at 0.3 μM)”. With O=C(CC1CCCCCC1)Nc1ncnc2c1CCN(CCc1ccccc1)C2 [Compound 129] the IL-1β % inhibition was “+ (compound exhibited 0-25% inhibition at 0.3 μM)”. O=C(CC1CCCCCC1)Nc1ncnc2c1CCN(Cc1ccc(F)cc1)C2 [Compound 130] was tested, and the IL-1β % inhibition was “+ (compound exhibited 0-25% inhibition at 0.3 μM)”. In the case of O=C(CC12CC3CC(CC(C3)C1)C2)Nc1ncnc2c1CCN(Cc1cccc(C(F)(F)F)c1F)C2 [Compound 131], the IL-1β % inhibition is reported as “+ (compound exhibited 0-25% inhibition at 0.3 μM)”. In the case of COc1ccccc1CCC(=O)Nc1ncnc2c1CCN(Cc1ccncc1)C2 [Compound 133], the IL-1β % inhibition is reported as “+ (compound exhibited 0-25% inhibition at 0.3 μM)”. COc1ccccc1CCC(=O)Nc1ncnc2c1CCN(Cc1ccccn1)C2 [Compound 134] was tested, and the IL-1β % inhibition was “+ (compound exhibited 0-25% inhibition at 0.3 μM)”. COc1ccccc1CCC(=O)Nc1ncnc2c1CCN(Cc1c[nH]cn1)C2 [Compound 135] was tested, and the IL-1β % inhibition was “+ (compound exhibited 0-25% inhibition at 0.3 μM)”. In the case of COc1ccccc1CCC(=O)Nc1ncnc2c1CCN(CC1CCCCC1)C2 [Compound 136], the IL-1β % inhibition is reported as “+ (compound exhibited 0-25% inhibition at 0.3 μM)”. O=C(NCC12CC3CC(CC(C3)C1)C2)c1ncnc2c1CCN(Cc1ccc3c(c1)OCCO3)C2 [Compound 138] was tested, and the IL-1β % inhibition was “++++ (compound exhibited 75% or greater inhibition at 0.3 μM)”. O=C(NCC12CC3CC(CC(C3)C1)C2)c1ncnc2c1CCN(Cc1ccccc1F)C2 [Compound 139] was tested, and the IL-1β % inhibition was “++ (compound exhibited 25-50% inhibition at 0.3 μM)”. With O=C(O)COc1ccc(CN2CCc3c(ncnc3NC(=O)CC34CC5CC(CC(C5)C3)C4)C2)cc1 [Compound 140] the IL-1β % inhibition was “+ (compound exhibited 0-25% inhibition at 0.3 μM)”. For O=C(O)COc1ccccc1CN1CCc2c(ncnc2NC(=O)CC23CC4CC(CC(C4)C2)C3)C1 [Compound 141], the IL-1β % inhibition was “+ (compound exhibited 0-25% inhibition at 0.3 μM)”. For CS(=O)(=O)N1CCc2c(ncnc2NC(=O)CC23CC4CC(CC(C4)C2)C3)C1 [Compound 142], the IL-1β % inhibition was “+++ (compound exhibited 50-75% inhibition at 0.3 μM)”. For Cc1ccc(S(=O)(=O)N2CCc3c(ncnc3NC(=O)CC34CC5CC(CC(C5)C3)C4)C2)cc1 [Compound 144], the IL-1β % inhibition was “+++ (compound exhibited 50-75% inhibition at 0.3 μM)”. CCCS(=O)(=O)N1CCc2c(ncnc2NC(=O)CC23CC4CC(CC(C4)C2)C3)C1 [Compound 147] was tested, and the IL-1β % inhibition was “++++ (compound exhibited 75% or greater inhibition at 0.3 μM)”. With CCS(=O)(=O)N1CCc2c(ncnc2NC(=O)CC23CC4CC(CC(C4)C2)C3)C1 [Compound 148] the IL-1β % inhibition was “+ (compound exhibited 0-25% inhibition at 0.3 μM)”. COc1ccc(S(=O)(=O)N2CCc3c(ncnc3NC(=O)CC34CC5CC(CC(C5)C3)C4)C2)cc1 [Compound 149] was tested, and the IL-1β % inhibition was “+++ (compound exhibited 50-75% inhibition at 0.3 μM)”. For COc1ccc(S(=O)(=O)N2CCc3c(ncnc3NC(=O)CC34CC5CC(CC(C5)C3)C4)C2)cc1OC [Compound 151], the IL-1β % inhibition was “+ (compound exhibited 0-25% inhibition at 0.3 μM)”. O=C(CC12CC3CC(CC(C3)C1)C2)Nc1ncnc2c1CCN(S(=O)(=O)c1ccc(F)cc1)C2 [Compound 152] was tested, and the IL-1β % inhibition was “+ (compound exhibited 0-25% inhibition at 0.3 μM)”. O=C(CC12CC3CC(CC(C3)C1)C2)Nc1ncnc2c1CCN(S(=O)(=O)Cc1ccccc1)C2 [Compound 153] was tested, and the IL-1β % inhibition was “++++ (compound exhibited 75% or greater inhibition at 0.3 μM)”. In the case of O=C(CC12CC3CC(CC(C3)C1)C2)Nc1ncnc2c1CCN(S(=O)(=O)c1cccc(C(F)(F)F)c1)C2 [Compound 154], the IL-1β % inhibition is reported as “++++ (compound exhibited 75% or greater inhibition at 0.3 μM)”. With O=C(CC12CC3CC(CC(C3)C1)C2)Nc1ncnc2c1CCN(S(=O)(=O)c1ccc(Cl)c(Cl)c1)C2 [Compound 155] the IL-1β % inhibition was “+ (compound exhibited 0-25% inhibition at 0.3 μM)”. In the case of CN1CCOc2cc(S(=O)(=O)N3CCc4c(ncnc4NC(=O)CC45CC6CC(CC(C6)C4)C5)C3)ccc21 [Compound 157], the IL-1β % inhibition is reported as “+ (compound exhibited 0-25% inhibition at 0.3 μM)”. Cc1nn(C)c(Cl)c1S(=O)(=O)N1CCc2c(ncnc2NC(=O)CC23CC4CC(CC(C4)C2)C3)C1 [Compound 158] was tested, and the IL-1β % inhibition was “+ (compound exhibited 0-25% inhibition at 0.3 μM)”. For Cc1cc(S(=O)(=O)N2CCc3c(ncnc3NC(=O)CC34CC5CC(CC(C5)C3)C4)C2)c(C(F)(F)F)o1 [Compound 159], the IL-1β % inhibition was “+ (compound exhibited 0-25% inhibition at 0.3 μM)”. With Cc1c(S(=O)(=O)N2CCc3c(ncnc3NC(=O)CC34CC5CC(CC(C5)C3)C4)C2)cnn1-c1ccccc1 [Compound 160] the IL-1β % inhibition was “++++ (compound exhibited 75% or greater inhibition at 0.3 μM)”. With O=C(CC12CC3CC(CC(C3)C1)C2)Nc1ncnc2c1CCN(S(=O)(=O)c1cccc(OC(F)(F)F)c1)C2 [Compound 161] the IL-1β % inhibition was “++ (compound exhibited 25-50% inhibition at 0.3 μM)”. COc1cccc(S(=O)(=O)N2CCc3c(ncnc3NC(=O)CC34CC5CC(CC(C5)C3)C4)C2)c1 [Compound 162] was tested, and the IL-1β % inhibition was “+ (compound exhibited 0-25% inhibition at 0.3 μM)”. In the case of Cc1nc(S(=O)(=O)N2CCc3c(ncnc3NC(=O)CC34CC5CC(CC(C5)C3)C4)C2)cn1C [Compound 164], the IL-1β % inhibition is reported as “+ (compound exhibited 0-25% inhibition at 0.3 μM)”.
